Data on two compounds can be found in PMC6149679 (2017).

Experiment [1] deals with poly A–poly U (RNA, polymer) A/U. Nature of the experiment: thermal denaturation, absorbance at 260 nm. The following applies: Na+ (sodium cacodylate, I = 0.05 M); pH 7.0; no stabilisation (error ± 0.5 °C); same at pH 5.
Experiment [2] has the same test system. Description: fluorescence titration (λexc 355 nm), Scatchard. The settings on record: Na+ (sodium cacodylate, I = 0.05 M); pH 5.0; n fixed at 0.2; polynucleotide as phosphates; per base.
The test system is the same in experiment [3]. Description: fluorescence titration (λexc 355 nm). The following applies: Na+ (sodium cacodylate, I = 0.05 M); pH 7.0; no emission change.
In experiment [4] the test system is poly AH+-poly AH+ (poly A at pH 5) (RNA, polymer, adenine protonated at pH 5) A. Nature of the experiment: fluorescence titration (λexc 355 nm). The settings on record: Na+ (sodium cacodylate, I = 0.05 M), emission of 2 did not change.
For the next experiment, the system named is poly A (RNA, polymer) A. Nature of the experiment: fluorescence titration (λexc 355 nm), Scatchard. The settings on record: Na+ (sodium cacodylate, I = 0.05 M); pH 7.0; n fixed at 0.2; polynucleotide as phosphates; per base.

Consider `COC(=O)C(Cc1cc2cn(CCN3C(=O)c4ccccc4C3=O)c(=O)nc2[nH]1)NC(=O)CNC(=O)[C@@H](CCCCN)NC(=O)c1ccc(C(=O)NC(=N)N)[nH]1` (stereo partly shown), for which the binding result in experiment [1], in experiment [3] and in experiment [4] was “no” throughout. The “log Ks” value amounted to 3.5 in experiment [2] and 4.1 in the experiment on poly A (RNA, polymer) A.
For `COC(=O)C(Cc1cc2cn(CCN3C(=O)c4ccccc4C3=O)c(=O)nc2[nH]1)NC(=O)CNC(=O)[C@H](N)CCCCNC(=O)c1ccc(C(=O)NC(=N)N)[nH]1` (stereo partly shown), the binding entry in experiment [1] and in experiment [3] was “no” in each case.
